The values that follow come from US20220009920A1 (GB005, Inc., priority 2020, published 2022).

For one experiment, the target named is T1, BTK (Homo sapiens, UniProt Q06187).
T1 construct: purchased Cama
The experiment can be described thus: Assay to determine activity against BTK. The following applies: 1 mM ATP, 2 nM BTK, 90 minutes at room temperature. Format: biochemical. As for the experimental part:
Solutions of compounds (test or control) in DMSO were prepared at the desired concentrations, and serially diluted to 11 concentrations by 3-fold dilution in 384pp-plate using TECAN EVO200. 20 nL of stock were transferred to 384 plate using Echo550. DMSO was used as vehicle control.
(BTK was obtained from Cama; FLPeptide2 was obtained from PerkinElmer and Ibrutinib was obtained from Selleck.) 5 μL of ATP solution were added to each well, followed by addition of 15 μL of BTK solution to initiate the reaction. (Note the final volume of each well was 20 μL containing MgCl2 (10 mM), Brij-35 (0.01%), DTT (2 mM), BSA (0.05%), EGTA (1 mM), HEPE (pH7.5) (50 mM), FLPeptide (1.5 uM), ATP (1 mM) and BTK (2 nM).
The plates were incubated at room temperature for 90 minutes and then stopping buffer added (75 μL, containing 0.5 M EDTA) to terminate the reaction. Samples from each well were analyzed using EZ reader. The % remaining activity was calculated using read conversion ratio (CR) according to the equation: […]
XLFit (equation 201) was used to calculate IC50's by floating both bottom and top.

For another experiment, the system named is BTK in RAMOS B cells. In words: Assay to determine BTK activity in RAMOS B cells (anti-IgM, FLIPR Calcium 6). In kind it is cell-based. The following applies: anti-IgM EC80, calcium readout. Here is the method:
On the day before assay, Ramos B cells were plated in plating medium (RPMI1640 medium containing 1% FBS and 1× pencillin-streptomycin). On the day of the assay, 2× dye solution was prepared following the manual of the FLIRP Calcium 6 Assay Kit: Dilute the dye with assay buffer (20 mM HEPES in IX HBSS, pH7.4); Add probenecid to the final concentration of 5 mM; vortex vigorously for 1-2 minutes. Cells were collected by centrifuging, and the pellet was re-suspended in plating medium. After counting, cells were re-suspended at a density of 3×10^6/ml in plating medium. Equal volume of 2× dye solution was added to the cell suspension. Cells were then plated at 20 μl/well into a 384-well poly-D-lysine coated plate. Plate was centrifuged at 1000 rpm for 3 minutes and then incubated at 37° C. for 2 hours followed by an additional 15-minute incubation at 25° C. Compounds were prepared at 3× concentration in dilution buffer (20 mM HEPES and 0.1% BSA in 1×HBSS, pH 7.4). Serially diluted compound was transferred from source plate to a 384-well compound plate by using an Echo 550 (Labcyte). 20 μl/well compound dilution buffer was added to the compound plate and mixed on plate shaker for 2 mins. 4× EC80 of Anti-IgM (Jackson ImmunoResearch) was prepared in dilution buffer and 20 μl/well was added to a new 384-well compound plate. After 60 mins of incubation at 25° C. in the dark; cell plate, compound plate containing 4×EC80 of anti-IgM and FLIPR tips were placed into FLIPR (Molecular Devices). 10 ul/well of 4×EC80 anti-IgM was transferred to the cell plate by FLIPR. Plates were read for 160 sec with 1 sec interval.

Where only a bound is given, the exact number is not on record here.

T1 sequence (Q06187 whole entry): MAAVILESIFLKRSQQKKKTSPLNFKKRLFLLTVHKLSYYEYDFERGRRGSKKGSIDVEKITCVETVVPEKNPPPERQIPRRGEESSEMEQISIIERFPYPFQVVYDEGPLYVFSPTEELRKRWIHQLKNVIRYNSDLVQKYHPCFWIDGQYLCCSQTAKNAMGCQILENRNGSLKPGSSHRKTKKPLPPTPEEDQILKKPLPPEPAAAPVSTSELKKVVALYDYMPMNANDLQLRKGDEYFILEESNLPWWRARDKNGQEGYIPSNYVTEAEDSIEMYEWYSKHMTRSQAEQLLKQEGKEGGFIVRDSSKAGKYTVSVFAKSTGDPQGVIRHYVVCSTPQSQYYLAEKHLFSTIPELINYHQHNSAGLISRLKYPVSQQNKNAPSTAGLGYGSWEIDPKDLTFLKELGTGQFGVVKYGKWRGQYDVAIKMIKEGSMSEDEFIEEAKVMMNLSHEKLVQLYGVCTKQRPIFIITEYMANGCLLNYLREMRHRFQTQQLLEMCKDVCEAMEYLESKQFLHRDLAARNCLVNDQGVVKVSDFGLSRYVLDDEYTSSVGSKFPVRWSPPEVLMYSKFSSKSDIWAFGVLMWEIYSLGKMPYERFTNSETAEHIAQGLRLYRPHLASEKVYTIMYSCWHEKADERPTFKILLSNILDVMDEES

One may read the IC50 as the concentration that gives 50% inhibition. Regarding `C=CC(=O)N1CCc2c(cccc2-c2cnc(C(N)=O)c3[nH]c4c(c23)CCCC4)C1` [Compound 2-1, 4-(2-acryloyl-1,2,3,4-tetrahydroisoquinolin-5-yl)-6,7,8,9-tetrahydro-5H-pyrido[3,4-b]indole-1-carboxamide], the IC50 was 0.01 to 0.1 µM against BTK and 0.01 to 0.1 µM in the experiment with BTK in RAMOS B cells (Homo sapiens, Ramos).

With `C=CC(=O)N1CCc2c(cccc2-c2c(C)nc(C(N)=O)c3[nH]c4c(c23)CC2(CC4)CC2)C1` [Compound 7-26, 4′-(2-acryloyl-1,2,3,4-tetrahydroisoquinolin-5-yl)-3′-methyl-5′,7′,8′,9′-tetrahydrospiro[cyclopropane-1,6′-pyrido[3,4-b]indole]-1′-carboxamide], the IC50 at BTK is no less than 0.1 µM; in the experiment on BTK in RAMOS B cells (Homo sapiens, Ramos) it was no less than 0.1 µM.

As for `C=CC(=O)N1CCc2c(cccc2-c2c(F)cc(C(N)=O)c3[nH]c4c(c23)CCCCC4)C1` (single isomer, unassigned) [Compound 5-1, 2-fluoro-1-[2-(prop-2-enoyl)-3,4-dihydro-1H-isoquinolin-5-yl]-5H,6H,7H,8H,9H,10H-cyclohepta[b]indole-4-carboxamide], the IC50 against BTK and in the experiment with BTK in RAMOS B cells was 0.01 to 0.1 µM throughout.

For the compound `C=CC(=O)N1CCc2c(cccc2-c2c(F)cc(C(N)=O)c3[nH]c4c(c23)CC2(CC4)CC2)C1` [Compound 7-24, 5-(2-acryloyl-1,2,3,4-tetrahydroisoquinolin-5-yl)-6-fluoro-1,2,4,9-tetrahydrospiro[carbazole-3,1′-cyclopropane]-8-carboxamide], the IC50 on BTK is less than 0.01 µM; in the experiment with BTK in RAMOS B cells, 0.01 to 0.1 µM.

Regarding `C=CC(=O)N1CCc2c(cccc2-c2c(F)cc(C(N)=O)c3[nH]c4c(c23)CC2(CCOC2)CC4)C1` (centres unmarked) [Compound 7-18, 5-(2-acryloyl-1,2,3,4-tetrahydroisoquinolin-5-yl)-6-fluoro-1,2,4,4′,5′,9-hexahydro-2′H-spiro[carbazole-3,3′-furan]-8-carboxamide], the IC50 against BTK was 0.01 to 0.1 µM; in the experiment on BTK in RAMOS B cells, no less than 0.1 µM.

Consider `C=CC(=O)N1CCc2c(cccc2-c2c(F)cc(C(N)=O)c3[nH]c4c(c23)CS(=O)(=O)CC4)C1` (single isomer, unassigned) [Compound 9-4, 9-(2-acryloyl-1,2,3,4-tetrahydroisoquinolin-5-yl)-8-fluoro-1,3,4,5-tetrahydrothiopyrano[4,3-b]indole-6-carboxamide 2,2-dioxide], for which the IC50 against BTK and in the experiment with BTK in RAMOS B cells was no less than 0.1 µM in each case.

For `CC#CC(=O)N[C@H]1C[C@H](F)CN(c2c(F)cc(C(N)=O)c3[nH]c4c(c23)CC2(CC4)CC2)C1` [Compound 7-23, 5-((3S,5S)-3-(but-2-ynamido)-5-fluoropiperidin-1-yl)-6-fluoro-1,2,4,9-tetrahydrospiro[carbazole-3,1′-cyclopropane]-8-carboxamide], the IC50 against BTK was less than 0.01 µM; in the experiment with BTK in RAMOS B cells (Homo sapiens, Ramos), less than 0.01 µM.

On to `C=CC(=O)N1CCc2c(cccc2-c2c(F)cc(C(N)=O)c3[nH]c4c(c23)CC2(CCOC2)CC4)C1` (centres unmarked) [Compound 7-17, 5-(2-acryloyl-1,2,3,4-tetrahydroisoquinolin-5-yl)-6-fluoro-1,2,4,4′,5′,9-hexahydro-2′H-spiro[carbazole-3,3′-furan]-8-carboxamide], for which the IC50 was 0.01 to 0.1 µM against BTK and no less than 0.1 µM with BTK in RAMOS B cells (Homo sapiens, Ramos).

As to `C=CC(=O)N1CCc2c(cccc2-c2c(F)cc(C(N)=O)c3[nH]c4c(c23)CC2(CCCC2)CC4)C1` [Compound 7-14, 5-(2-acryloyl-1,2,3,4-tetrahydroisoquinolin-5-yl)-6-fluoro-1,2,4,9-tetrahydrospiro[carbazole-3,1′-cyclopentane]-8-carboxamide], the IC50 is no less than 0.1 µM against BTK and no less than 0.1 µM in the experiment on BTK in RAMOS B cells (Homo sapiens, Ramos).

Consider `C=CC(=O)N1CCC=C(c2ccc(C(N)=O)c3[nH]c4c(c23)CSCC4)C1` [Compound 8-1, 9-(1-acryloyl-1,2,5,6-tetrahydropyridin-3-yl)-1,3,4,5-tetrahydrothiopyrano-[4,3-b]indole-6-carboxamide], for which the IC50 at BTK was less than 0.01 µM; in the experiment with BTK in RAMOS B cells (Homo sapiens, Ramos), less than 0.01 µM.
